Test results reported in ChEMBL document CHEMBL1126192, “PgH2 analogs as potential antiplatelet derivatives” (J Med Chem, 1992).

Key:
Homo sapiens = organism: Homo sapiens; test: Compound was evaluated for the inhibition of U-46,619 induced aggregation of human platelet rich plasma; type: functional
Thromboxane A2 receptor = molecular target: T1, Thromboxane A2 receptor (Homo sapiens, UniProt P21731); test: Compound was evaluated for the competitive binding of [3H]U-46619 to washed human platelets at the Thromboxane A2 receptor
T1 sequence (P21731 whole entry): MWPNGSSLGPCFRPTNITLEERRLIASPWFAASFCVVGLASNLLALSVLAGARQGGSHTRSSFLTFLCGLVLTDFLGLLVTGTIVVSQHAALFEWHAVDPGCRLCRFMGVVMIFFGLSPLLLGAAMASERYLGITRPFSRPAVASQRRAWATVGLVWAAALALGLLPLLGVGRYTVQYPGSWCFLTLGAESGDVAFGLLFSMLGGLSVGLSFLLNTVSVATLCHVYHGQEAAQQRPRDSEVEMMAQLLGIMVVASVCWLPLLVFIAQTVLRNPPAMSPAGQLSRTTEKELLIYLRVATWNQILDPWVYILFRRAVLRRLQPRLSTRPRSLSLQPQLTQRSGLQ

IC50 (Homo sapiens) [µM]	IC50 (Thromboxane A2 receptor) [µM]	Compound
22	25	CCCCCCNC[C@H]1C2CC(CO2)[C@@H]1C/C=C\CCCC(=O)O (stereo partly drawn)
7	–	O=C(O)CCC/C=C\C[C@H]1C2COC(C2)[C@@H]1CNNC(=O)Nc1ccccc1 (stereo partly drawn)
